System: Eca-109/VCR
Assay: Cytotoxicity against human Eca-109/VCR cells assessed as reduction in cell viability at 5.0 uM incubated for 48 hrs by CCK-8 assay relative to control
Type: functional
Details: not given

Row | Structure (SMILES) | Cell viability (% of control) [%]
1 | CCCCCCCCOc1cc(CC2c3cc(OC)c(OC)cc3CCN2C)ccc1OC (stereo unspecified) | 95.3
2 | COc1cc2c(cc1OC)C(Cc1ccc(OC)c(OC(=O)c3ccc4ccccc4c3)c1)N(C)CC2 (stereo unspecified) | 101.1
3 | COc1cc2c(cc1OC)C(Cc1ccc(OC)c(OCC3CC3)c1)N(C)CC2 (stereo unspecified) | 105.6
4 | COc1cc2c(cc1OC)CN(CCc1ccc(NC(=O)c3cc(OC)c(OC)cc3NC(=O)c3cnc4ccccc4c3)cc1)CC2 [TARIQUIDAR] | 84.8
5 | COC(=O)c1sccc1S(=O)(=O)Oc1cc(CC2c3cc(OC)c(OC)cc3CCN2C)ccc1OC (stereo unspecified) | 100.7
6 | COc1cc2c(cc1OC)C(Cc1ccc(OCc3ccc(Cl)cc3Cl)c(OC)c1)N(C)CC2 (stereo unspecified) | 92.4
7 | COc1cc2c(cc1OC)C(Cc1ccc(OCC3CCC3)c(OC)c1)N(C)CC2 (stereo unspecified) | 107.9
8 | COc1cc2c(cc1OC)C(Cc1ccc(OS(=O)(=O)c3ccc([N+](=O)[O-])cc3)c(OC)c1)N(C)CC2 (stereo unspecified) | 105.6
9 | COc1cc2c(cc1OC)C(Cc1ccc(OC)c(OS(=O)(=O)c3ccccc3[N+](=O)[O-])c1)N(C)CC2 (stereo unspecified) | 102
10 | COc1cc2c(cc1OC)C(Cc1ccc(OC)c(OCCc3ccccc3)c1)N(C)CC2 (stereo unspecified) | 102.4
11 | CCOCCOCCOc1ccc(CC2c3cc(OC)c(OC)cc3CCN2C)cc1OC (stereo unspecified) | 103.6
12 | COc1cc2c(cc1OC)C(Cc1ccc(OC)c(OS(=O)(=O)c3ccccc3F)c1)N(C)CC2 (stereo unspecified) | 98.9
13 | COc1cc2c(cc1OC)C(Cc1ccc(OC)c(Oc3ccc([N+](=O)[O-])cc3)c1)N(C)CC2 (stereo unspecified) | 100.4
14 | COc1cc2c(cc1OC)C(Cc1ccc(OS(=O)(=O)Cc3ccccc3)c(OC)c1)N(C)CC2 (stereo unspecified) | 102.6
15 | COc1cc2c(cc1OC)C(Cc1ccc(OC)c(OS(=O)(=O)c3ccc(C#N)cc3)c1)N(C)CC2 (stereo unspecified) | 96
16 | COc1cc2c(cc1OC)C(Cc1ccc(OCCc3ccccc3)c(OC)c1)N(C)CC2 (stereo unspecified) | 104.2
17 | COc1cc2c(cc1OC)C(Cc1ccc(OCc3ccc(Br)cc3)c(OC)c1)N(C)CC2 (stereo unspecified) | 91.1
18 | CCCCCCCCOc1ccc(CC2c3cc(OC)c(OC)cc3CCN2C)cc1OC (stereo unspecified) | 94.7
19 | COc1cc2c(cc1OC)C(Cc1ccc(OC)c(OC(=O)C3CCCCC3)c1)N(C)CC2 (stereo unspecified) | 103.6
20 | COc1cc2c(cc1OC)C(Cc1ccc(OC)c(OS(=O)(=O)c3ccc4ccccc4c3)c1)N(C)CC2 (stereo unspecified) | 94.7
21 | COc1cc2c(cc1OC)C(Cc1ccc(OC)c(OCc3ccc(Br)cc3)c1)N(C)CC2 (stereo unspecified) | 97.8
22 | CCOCCOCCOc1cc(CC2c3cc(OC)c(OC)cc3CCN2C)ccc1OC (stereo unspecified) | 103.1

System: not listed separately
Assay: Reversal fold, ratio of vincristine IC50 to vincristine IC50 in presence of test compound for reversal of drug resistance in human Eca-109/VCR cells at 5 uM incubated for 48 hrs by CCK-8 assay
Type: functional
Details: not given

Row | Structure (SMILES) | Ratio IC50
23 | CCCCCCCCOc1cc(CC2c3cc(OC)c(OC)cc3CCN2C)ccc1OC (stereo unspecified) | 159
24 | COc1cc2c(cc1OC)C(Cc1ccc(OC)c(OC(=O)c3ccc4ccccc4c3)c1)N(C)CC2 (stereo unspecified) | 107.9
25 | COc1cc2c(cc1OC)C(Cc1ccc(OC)c(OCC3CC3)c1)N(C)CC2 (stereo unspecified) | 6.3
26 | COC(=O)c1sccc1S(=O)(=O)Oc1cc(CC2c3cc(OC)c(OC)cc3CCN2C)ccc1OC (stereo unspecified) | 12.3
27 | COc1cc2c(cc1OC)C(Cc1ccc(OCc3ccc(Cl)cc3Cl)c(OC)c1)N(C)CC2 (stereo unspecified) | 307.6
28 | COc1cc2c(cc1OC)C(Cc1ccc(OCC3CCC3)c(OC)c1)N(C)CC2 (stereo unspecified) | 188.7
29 | COc1cc2c(cc1OC)C(Cc1ccc(OS(=O)(=O)c3ccc([N+](=O)[O-])cc3)c(OC)c1)N(C)CC2 (stereo unspecified) | 172.2
30 | COc1cc2c(cc1OC)C(Cc1ccc(OC)c(OS(=O)(=O)c3ccccc3[N+](=O)[O-])c1)N(C)CC2 (stereo unspecified) | 253.3
31 | COc1cc2c(cc1OC)C(Cc1ccc(OC)c(OCCc3ccccc3)c1)N(C)CC2 (stereo unspecified) | 12.3
32 | CCOCCOCCOc1ccc(CC2c3cc(OC)c(OC)cc3CCN2C)cc1OC (stereo unspecified) | 8.5
33 | COc1cc2c(cc1OC)C(Cc1ccc(OC)c(OS(=O)(=O)c3ccccc3F)c1)N(C)CC2 (stereo unspecified) | 16.5
34 | COc1cc2c(cc1OC)C(Cc1ccc(OC)c(Oc3ccc([N+](=O)[O-])cc3)c1)N(C)CC2 (stereo unspecified) | 53.2
35 | COc1cc2c(cc1OC)C(Cc1ccc(OS(=O)(=O)Cc3ccccc3)c(OC)c1)N(C)CC2 (stereo unspecified) | 171.6
36 | COc1cc2c(cc1OC)C(Cc1ccc(OC)c(OS(=O)(=O)c3ccc(C#N)cc3)c1)N(C)CC2 (stereo unspecified) | 235.4
37 | COc1cc2c(cc1OC)C(Cc1ccc(OCCc3ccccc3)c(OC)c1)N(C)CC2 (stereo unspecified) | 1.8
38 | COc1cc2c(cc1OC)C(Cc1ccc(OCc3ccc(Br)cc3)c(OC)c1)N(C)CC2 (stereo unspecified) | 201.2
39 | CCCCCCCCOc1ccc(CC2c3cc(OC)c(OC)cc3CCN2C)cc1OC (stereo unspecified) | 82.6
40 | COc1cc2c(cc1OC)C(Cc1ccc(OC)c(OC(=O)C3CCCCC3)c1)N(C)CC2 (stereo unspecified) | 4.5
41 | COc1cc2c(cc1OC)C(Cc1ccc(OC)c(OS(=O)(=O)c3ccc4ccccc4c3)c1)N(C)CC2 (stereo unspecified) | 340.5
42 | COc1cc2c(cc1OC)C(Cc1ccc(OC)c(OCc3ccc(Br)cc3)c1)N(C)CC2 (stereo unspecified) | 158
43 | CCOCCOCCOc1cc(CC2c3cc(OC)c(OC)cc3CCN2C)ccc1OC (stereo unspecified) | 2.2

System: Eca-109/VCR
Assay: Induction of apoptosis in human Eca-109/VCR cells assessed as viable cells at 2.5 uM incubated for 60 hrs by Annexin V-FITC/PI staining based flow cytometric analysis (reference value: 97.4%)
Type: functional
Details: read-out: Activity

Row | Structure (SMILES) | viability at 2.5 µM [%]
44 | COc1cc2c(cc1OC)CN(CCc1ccc(NC(=O)c3cc(OC)c(OC)cc3NC(=O)c3cnc4ccccc4c3)cc1)CC2 [TARIQUIDAR] | 96.1

System: Eca-109/VCR
Assay: Induction of apoptosis in human Eca-109/VCR cells assessed as early apoptotic cells at 2.5 uM incubated for 60 hrs by Annexin V-FITC/PI staining based flow cytometric analysis (reference value: 1.66%)
Type: functional
Details: not given

Row | Structure (SMILES) | Activity [%]
45 | COc1cc2c(cc1OC)CN(CCc1ccc(NC(=O)c3cc(OC)c(OC)cc3NC(=O)c3cnc4ccccc4c3)cc1)CC2 [TARIQUIDAR] | 1

System: Eca-109/VCR
Assay: Induction of apoptosis in human Eca-109/VCR cells assessed as late apoptotic cells at 2.5 uM incubated for 60 hrs by Annexin V-FITC/PI staining based flow cytometric analysis (reference value: 0.70%)
Type: functional
Details: not given

Row | Structure (SMILES) | Activity [%]
46 | COc1cc2c(cc1OC)CN(CCc1ccc(NC(=O)c3cc(OC)c(OC)cc3NC(=O)c3cnc4ccccc4c3)cc1)CC2 [TARIQUIDAR] | 0.64

System: Eca-109/VCR
Assay: Induction of apoptosis in human Eca-109/VCR cells assessed as necrotic cells at 2.5 uM incubated for 60 hrs by Annexin V-FITC/PI staining based flow cytometric analysis (reference value: 0.22%)
Type: functional
Details: not given

Row | Structure (SMILES) | Activity [%]
47 | COc1cc2c(cc1OC)CN(CCc1ccc(NC(=O)c3cc(OC)c(OC)cc3NC(=O)c3cnc4ccccc4c3)cc1)CC2 [TARIQUIDAR] | 0.22

System: Eca-109/VCR
Assay: Induction of apoptosis in human Eca-109/VCR cells assessed as viable cells at 5 uM incubated for 60 hrs by Annexin V-FITC/PI staining based flow cytometric analysis (reference value: 97.4%)
Type: functional
Details: read-out: Activity

Row | Structure (SMILES) | viability at 5 µM [%]
48 | COc1cc2c(cc1OC)CN(CCc1ccc(NC(=O)c3cc(OC)c(OC)cc3NC(=O)c3cnc4ccccc4c3)cc1)CC2 [TARIQUIDAR] | 95.6

System: Eca-109/VCR
Assay: Induction of apoptosis in human Eca-109/VCR cells assessed as early apoptotic cells at 5 uM incubated for 60 hrs by Annexin V-FITC/PI staining based flow cytometric analysis (reference value: 1.66%)
Type: functional
Details: not given

Row | Structure (SMILES) | Activity [%]
49 | COc1cc2c(cc1OC)CN(CCc1ccc(NC(=O)c3cc(OC)c(OC)cc3NC(=O)c3cnc4ccccc4c3)cc1)CC2 [TARIQUIDAR] | 3.18

System: Eca-109/VCR
Assay: Induction of apoptosis in human Eca-109/VCR cells assessed as necrotic cells at 5 uM incubated for 60 hrs by Annexin V-FITC/PI staining based flow cytometric analysis (reference value: 0.22%)
Type: functional
Details: not given

Row | Structure (SMILES) | Activity [%]
50 | COc1cc2c(cc1OC)CN(CCc1ccc(NC(=O)c3cc(OC)c(OC)cc3NC(=O)c3cnc4ccccc4c3)cc1)CC2 [TARIQUIDAR] | 0.21

System: Eca-109/VCR
Assay: Induction of apoptosis in human Eca-109/VCR cells assessed as viable cells at 2.5 uM incubated for 60 hrs in presence of vincristine by Annexin V-FITC/PI staining based flow cytometric analysis (reference value: 97.3%)
Type: functional
Details: read-out: Activity

Row | Structure (SMILES) | viability at 2.5 µM [%]
51 | COc1cc2c(cc1OC)CN(CCc1ccc(NC(=O)c3cc(OC)c(OC)cc3NC(=O)c3cnc4ccccc4c3)cc1)CC2 [TARIQUIDAR] | 63.2

System: Eca-109/VCR
Assay: Induction of apoptosis in human Eca-109/VCR cells assessed as viable cells at 5 uM incubated for 60 hrs in presence of vincristine by Annexin V-FITC/PI staining based flow cytometric analysis (reference value: 97.3%)
Type: functional
Details: read-out: Activity

Row | Structure (SMILES) | viability at 5 µM [%]
52 | COc1cc2c(cc1OC)CN(CCc1ccc(NC(=O)c3cc(OC)c(OC)cc3NC(=O)c3cnc4ccccc4c3)cc1)CC2 [TARIQUIDAR] | 63.4

System: Eca-109/VCR
Assay: Induction of apoptosis in human Eca-109/VCR cells assessed as late apoptotic cells at 2.5 uM incubated for 60 hrs in presence of vincristine by Annexin V-FITC/PI staining based flow cytometric analysis (reference value: 0.56%)
Type: functional
Details: not given

Row | Structure (SMILES) | Activity [%]
53 | COc1cc2c(cc1OC)CN(CCc1ccc(NC(=O)c3cc(OC)c(OC)cc3NC(=O)c3cnc4ccccc4c3)cc1)CC2 [TARIQUIDAR] | 7.6

System: Eca-109/VCR
Assay: Induction of apoptosis in human Eca-109/VCR cells assessed as late apoptotic cells at 5 uM incubated for 60 hrs in presence of vincristine by Annexin V-FITC/PI staining based flow cytometric analysis (reference value: 0.56%)
Type: functional
Details: not given

Row | Structure (SMILES) | Activity [%]
54 | COc1cc2c(cc1OC)CN(CCc1ccc(NC(=O)c3cc(OC)c(OC)cc3NC(=O)c3cnc4ccccc4c3)cc1)CC2 [TARIQUIDAR] | 7

System: Eca-109/VCR
Assay: Induction of apoptosis in human Eca-109/VCR cells assessed as necrotic cells at 2.5 uM incubated for 60 hrs in presence of vincristine by Annexin V-FITC/PI staining based flow cytometric analysis (reference value: 0.10%)
Type: functional
Details: not given

Row | Structure (SMILES) | Activity [%]
55 | COc1cc2c(cc1OC)CN(CCc1ccc(NC(=O)c3cc(OC)c(OC)cc3NC(=O)c3cnc4ccccc4c3)cc1)CC2 [TARIQUIDAR] | 0.47

System: Eca-109/VCR
Assay: Induction of apoptosis in human Eca-109/VCR cells assessed as necrotic cells at 5 uM incubated for 60 hrs in presence of vincristine by Annexin V-FITC/PI staining based flow cytometric analysis (reference value: 0.10%)
Type: functional
Details: not given

Row | Structure (SMILES) | Activity [%]
56 | COc1cc2c(cc1OC)CN(CCc1ccc(NC(=O)c3cc(OC)c(OC)cc3NC(=O)c3cnc4ccccc4c3)cc1)CC2 [TARIQUIDAR] | 0.57

— ChEMBL document CHEMBL6182888, “Design, synthesis, and biological activity study of 6,7-dimethoxy-1,2,3,4-tetrahydroisoquinoline derivatives against multidrug resistance in Eca109/VCR cells” (Eur J Med Chem, 2025)
